Reference: patent publication US9403841B2, “Phragamalin limonoids for the treatment of sexual dysfunction” (DICOTYLEDON AB, priority 2012, dated 2016)

Key:
male mice [1] = conditions: see WO 2008/145996; cited from earlier work
male mice [2] = experiment: Sexual behavior test: number of mounts of male mice on sexually receptive female mice during one hour; type: in vivo
Description: A “sexually enhancing effect” is defined herein as the effect being observable as an at least 50% increase, more preferably at least 75% increase, in the number of mounts of sexually naive male mice onto sexually receptive female mice (both preferably being of 8 to 10 weeks of age), after a compound has been administered (orally or sub-cutaneously) to the male mice, the male mice are thereafter, each one separately, being introduced to a sexually receptive female mouse; the observed number of mounts being compared with the number of mounts for control male mice (i.e. control mice being male mice of the same age and strain as the treated ones, but which were not administered the compound but otherwise handled in the same way as the treated mice). The observation period shall be 1 h. It is further required that the number of male mice in each one of the treated and non-treated groups amount to at least three, more preferably to at least four, even more preferably to at least five, and most preferably to at least six in each group for the test to be valid; the average number of mounts for the non treated (average_mount_control) and treated (average_mount_treated) during the 1 h observation period are then calculated and the percent increase (Effect) is then being computed as:
Mice of 9 weeks age weighing 30±2 g were used throughout the study. They were all sexually unskilled. At 4 weeks of age they had been separated from their parents and males and females had been placed in separated cages. The mice were fed with pellets enriched with proteins and lipids.
Prior to the tests, male and female mice received specific treatments, as follows: […]
At 3.00 pm, a female mouse was introduced into each cage hosting a male mouse. The number of mounts of the male mouse, defined as a tentative of lateral or dorsal mounting on the female mouse with or without penis intromission, was then counted during a one-hour observation period and used as a simple measure of sexual behavior activity.

COC(=O)CC1C2(C)CC34OC5(C)OC67C(CC(=O)OC6C3(OC(=O)C(C)C)C2OC(=O)C(C)C)C(C)(C(=O)c2ccoc2)CCC7(O5)C14C (stereo not shown) [Compound R306]
potency to induce a sexual enhancing effect (comparison) (male mice [1]): more potent than R310

COC(=O)CC1C2(C)CC34OC5(C)OC67C(CC(=O)OC6C3(O)C2OC(C)=O)C(C)(C(OC(=O)C(F)(F)F)c2ccoc2)CCC7(O5)C14C (stereo not shown) [GL-1203]
dose at which a clear and significant increase in the mounting frequency was seen (only at this dose) (male mice [2]; subcutaneous in olive oil for three consecutive days, doses tested 0.04, 0.4, 4 mg/kg): 4 mg/kg

COC(=O)CC1C2(C)CC34OC5(C)OC67C(CC(=O)OC6C3(O)C2OC(=O)C(C)C)C(C)(C(=O)c2ccoc2)CCC7(O5)C14C (stereo not shown) [SAE5]
dose at which clear and significant increases in number of mounts were seen already (male mice [2]; oral in olive oil for three consecutive days, doses tested 0.004-4 mg/kg): 0.04 mg/kg
maximum number of mounts over the one hour observation period (average) (male mice [2]; oral, 4 mg/kg for three consecutive days, D-4): 37 mounts
